Results reported in paper PMC11249953, “c-KIT inhibitors reduce pathology and improve behavior in the Tg(SwDI) model of Alzheimer’s disease” (Life Science Alliance, 2024).

Key:
MEK5 = molecular target: T1, MEK5 (Homo sapiens, UniProt Q13163); assay: KINOMEscan competition binding, MEK5; conditions: 10 µM compound; for remaining binding at 10 µM: lower = stronger binding, read-out: MEK5 %Ctrl @ 10000nM (POC)
T1 construct: DNA label for qPCR read-out (T7 phage fusion or DNA tag); purchased Eurofins DiscoverX Corporation; host or cells: T7 phage in E. coli (BL21-derived) or HEK-293
T1 sequence (Q13163 1-448): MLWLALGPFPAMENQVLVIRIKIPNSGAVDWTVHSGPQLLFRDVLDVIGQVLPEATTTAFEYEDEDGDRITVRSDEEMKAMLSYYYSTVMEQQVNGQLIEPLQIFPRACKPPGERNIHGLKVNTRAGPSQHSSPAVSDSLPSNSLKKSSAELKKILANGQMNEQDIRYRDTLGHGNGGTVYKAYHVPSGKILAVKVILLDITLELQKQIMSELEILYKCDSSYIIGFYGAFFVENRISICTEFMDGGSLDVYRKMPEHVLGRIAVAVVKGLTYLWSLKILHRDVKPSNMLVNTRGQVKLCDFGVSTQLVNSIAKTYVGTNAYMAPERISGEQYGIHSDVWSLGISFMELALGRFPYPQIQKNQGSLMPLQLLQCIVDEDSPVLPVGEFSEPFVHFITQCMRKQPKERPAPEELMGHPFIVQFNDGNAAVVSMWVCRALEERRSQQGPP
Procedure: (§1) The KINOMEscan screening platform (Eurofins DiscoverX Corporation) was performed using active site-directed competition binding assay to quantitatively measure interactions between BK40143 and BK40197 and more than 450 human kinases and disease relevant mutant variants. […] Screening “hits” are identified by measuring the amount of kinase captured in test (BK40143 and BK40197) versus control samples by using a quantitative and ultra-sensitive qRT-PCR method that detects the associated DNA label. BK40143 and BK40197 were screened at 10 µM concentration, and results for primary screen binding interactions were reported as “% Ctrl” (POC), where lower numbers indicate stronger hits and calculated as follows: [test compound signal−positive control signal/negative control signal−positive control signal]×100
(§2) negative control = DMSO (100% Ctrl)
(§3) positive control = control compound (0% Ctrl)
(§4) Based on screening data from of profiled compounds, a proportional relationship between primary screening results and corresponding compound/target affinities can be described as binding constants (Kd values) for the indicated ranges of POC values with tighter binding (higher affinity) interactions associated with lower POC values and weaker binding (lower affinity) associated with higher POC values. Briefly, kinase-tagged T7 phage strains were grown in parallel in 24-well blocks in an E. coli host derived from the BL21 strain. E. coli were grown to log-phase and infected with T7 phage from a frozen stock (multiplicity of infection = 0.4) and incubated with shaking at 32°C until lysis (90–150 min). The lysates were centrifuged (6,000g) and filtered (0.2 μm) to remove cell debris. The remaining kinases were produced in HEK-293 cells and subsequently tagged with DNA for qRT-PCR detection. Streptavidin-coated magnetic beads were treated with biotinylated small molecule ligands for 30 min at RT to generate affinity resins for kinase assays. The liganded beads were blocked with excess biotin and washed with blocking buffer (1% BSA, 0.05% Tween 20, 1 mM DTT; SeaBlock [Pierce]) to remove unbound ligand and to reduce non-specific phage binding. Binding reactions were assembled by combining kinases, liganded affinity beads, and test compounds in 1x binding buffer (20% 0.17x PBS, 0.05% Tween 20, 6 mM DTT; SeaBlock). Test compounds were prepared as 100x stocks in 100% DMSO and directly diluted into the assay. All reactions were performed in polypropylene 384-well plates in a final volume of 0.02 ml. The assay plates were incubated at RT with shaking for 1 h and the affinity beads were washed with wash buffer (1x PBS, 0.05% Tween 20). […] The kinase concentration in the eluates was measured by qRT-PCR.

ULK3 = molecular target: T2, ULK3 (Homo sapiens, UniProt Q6PHR2); assay: KINOMEscan competition binding, ULK3; conditions: 10 µM compound; for remaining binding at 10 µM: lower = stronger binding, read-out: ULK3 %Ctrl @ 10000nM (POC)
T2 construct: DNA label for qPCR read-out (T7 phage fusion or DNA tag); purchased Eurofins DiscoverX Corporation; host or cells: T7 phage in E. coli (BL21-derived) or HEK-293
T2 sequence (Q6PHR2 1-472): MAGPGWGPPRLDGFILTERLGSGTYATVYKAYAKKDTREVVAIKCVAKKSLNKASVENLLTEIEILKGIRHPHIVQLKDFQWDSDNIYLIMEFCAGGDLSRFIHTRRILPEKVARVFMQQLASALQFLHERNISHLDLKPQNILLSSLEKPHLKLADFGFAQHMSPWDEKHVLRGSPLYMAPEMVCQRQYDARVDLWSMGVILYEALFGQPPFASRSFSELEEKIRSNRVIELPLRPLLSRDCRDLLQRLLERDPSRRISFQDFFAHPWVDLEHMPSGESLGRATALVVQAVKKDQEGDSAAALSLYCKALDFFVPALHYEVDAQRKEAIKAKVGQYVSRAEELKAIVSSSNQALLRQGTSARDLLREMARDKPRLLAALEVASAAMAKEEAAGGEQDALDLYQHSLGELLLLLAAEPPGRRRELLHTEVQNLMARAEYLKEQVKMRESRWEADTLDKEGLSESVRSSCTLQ
Procedure: as §1, §2, §3, §4

DDR1 = molecular target: T3, DDR1 (Homo sapiens, UniProt Q08345); assay: KINOMEscan competition binding, DDR1; conditions: 10 µM compound; for remaining binding at 10 µM: lower = stronger binding, read-out: DDR1 %Ctrl @ 10000nM
T3 construct: DNA label for qPCR read-out (T7 phage fusion or DNA tag); purchased Eurofins DiscoverX Corporation; host or cells: T7 phage in E. coli (BL21-derived) or HEK-293
Procedure: as §1, §2, §3, §4

SRC = molecular target: T4, SRC (Homo sapiens, UniProt P12931); assay: KINOMEscan competition binding, SRC; conditions: 10 µM compound; for remaining binding at 10 µM: lower = stronger binding, read-out: SRC %Ctrl @ 10000nM (POC)
T4 construct: DNA label for qPCR read-out (T7 phage fusion or DNA tag); purchased Eurofins DiscoverX Corporation; host or cells: T7 phage in E. coli (BL21-derived) or HEK-293
Procedure: as §1, §2, §3, §4

ABL1 = molecular target: T5, ABL1 (Homo sapiens, UniProt P00519); assay: KINOMEscan competition binding, ABL1; conditions: 10 µM compound; for remaining binding at 10 µM: lower = stronger binding, read-out: ABL1 %Ctrl @ 10000nM
T5 construct: DNA label for qPCR read-out (T7 phage fusion or DNA tag); purchased Eurofins DiscoverX Corporation; host or cells: T7 phage in E. coli (BL21-derived) or HEK-293
Procedure: as §1, §2, §3, §4

CSF1R = molecular target: T6, CSF1R (Homo sapiens, UniProt P07333); assay: KINOMEscan competition binding, CSF1R; conditions: 10 µM compound; for remaining binding at 10 µM: lower = stronger binding, read-out: CSF1R %Ctrl @ 10000nM
T6 construct: DNA label for qPCR read-out (T7 phage fusion or DNA tag); purchased Eurofins DiscoverX Corporation; host or cells: T7 phage in E. coli (BL21-derived) or HEK-293
Procedure: as §1, §2, §3, §4

T6 sequence (P07333 20-972): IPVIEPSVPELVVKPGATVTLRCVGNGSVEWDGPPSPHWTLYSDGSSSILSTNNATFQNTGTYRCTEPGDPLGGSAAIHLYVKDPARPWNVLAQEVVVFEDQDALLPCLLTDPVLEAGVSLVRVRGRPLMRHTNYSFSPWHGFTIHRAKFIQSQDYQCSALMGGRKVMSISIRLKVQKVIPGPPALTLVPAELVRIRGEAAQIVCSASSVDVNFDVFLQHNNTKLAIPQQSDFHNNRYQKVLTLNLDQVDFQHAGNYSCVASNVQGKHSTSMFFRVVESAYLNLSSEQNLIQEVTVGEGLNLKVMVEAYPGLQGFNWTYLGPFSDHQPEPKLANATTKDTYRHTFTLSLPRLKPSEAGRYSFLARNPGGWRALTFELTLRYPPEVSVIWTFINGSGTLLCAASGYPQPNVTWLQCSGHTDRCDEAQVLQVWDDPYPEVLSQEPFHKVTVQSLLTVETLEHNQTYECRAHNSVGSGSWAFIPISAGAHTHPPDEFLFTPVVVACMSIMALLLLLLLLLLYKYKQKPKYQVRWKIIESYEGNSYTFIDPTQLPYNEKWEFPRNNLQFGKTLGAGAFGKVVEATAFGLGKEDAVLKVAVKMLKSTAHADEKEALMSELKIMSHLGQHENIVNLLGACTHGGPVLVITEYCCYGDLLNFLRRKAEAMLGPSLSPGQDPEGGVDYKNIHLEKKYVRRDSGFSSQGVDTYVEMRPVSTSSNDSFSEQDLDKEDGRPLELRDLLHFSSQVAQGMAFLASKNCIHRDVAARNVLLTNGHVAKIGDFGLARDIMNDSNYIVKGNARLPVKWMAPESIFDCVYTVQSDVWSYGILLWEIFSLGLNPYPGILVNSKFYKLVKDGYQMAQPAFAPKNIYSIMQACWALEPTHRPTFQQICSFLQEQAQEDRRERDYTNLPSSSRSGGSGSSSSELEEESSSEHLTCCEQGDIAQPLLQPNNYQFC
T4 sequence (P12931 whole entry, the tested form may be a part): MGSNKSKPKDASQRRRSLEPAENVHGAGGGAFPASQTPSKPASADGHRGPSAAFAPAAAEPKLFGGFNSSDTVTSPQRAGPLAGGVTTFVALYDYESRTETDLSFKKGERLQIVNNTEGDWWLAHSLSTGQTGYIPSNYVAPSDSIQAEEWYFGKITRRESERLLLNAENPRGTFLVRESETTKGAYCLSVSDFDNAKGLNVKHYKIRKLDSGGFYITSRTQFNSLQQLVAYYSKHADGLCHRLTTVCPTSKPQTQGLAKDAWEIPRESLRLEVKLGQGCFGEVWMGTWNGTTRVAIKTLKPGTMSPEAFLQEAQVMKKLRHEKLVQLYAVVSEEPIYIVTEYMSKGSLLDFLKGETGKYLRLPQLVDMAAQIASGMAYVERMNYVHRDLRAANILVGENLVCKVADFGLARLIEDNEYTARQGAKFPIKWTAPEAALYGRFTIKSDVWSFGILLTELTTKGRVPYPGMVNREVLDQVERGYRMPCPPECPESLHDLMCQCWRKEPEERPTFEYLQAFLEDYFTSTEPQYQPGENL
T5 sequence (P00519 whole entry, the tested form may be a part): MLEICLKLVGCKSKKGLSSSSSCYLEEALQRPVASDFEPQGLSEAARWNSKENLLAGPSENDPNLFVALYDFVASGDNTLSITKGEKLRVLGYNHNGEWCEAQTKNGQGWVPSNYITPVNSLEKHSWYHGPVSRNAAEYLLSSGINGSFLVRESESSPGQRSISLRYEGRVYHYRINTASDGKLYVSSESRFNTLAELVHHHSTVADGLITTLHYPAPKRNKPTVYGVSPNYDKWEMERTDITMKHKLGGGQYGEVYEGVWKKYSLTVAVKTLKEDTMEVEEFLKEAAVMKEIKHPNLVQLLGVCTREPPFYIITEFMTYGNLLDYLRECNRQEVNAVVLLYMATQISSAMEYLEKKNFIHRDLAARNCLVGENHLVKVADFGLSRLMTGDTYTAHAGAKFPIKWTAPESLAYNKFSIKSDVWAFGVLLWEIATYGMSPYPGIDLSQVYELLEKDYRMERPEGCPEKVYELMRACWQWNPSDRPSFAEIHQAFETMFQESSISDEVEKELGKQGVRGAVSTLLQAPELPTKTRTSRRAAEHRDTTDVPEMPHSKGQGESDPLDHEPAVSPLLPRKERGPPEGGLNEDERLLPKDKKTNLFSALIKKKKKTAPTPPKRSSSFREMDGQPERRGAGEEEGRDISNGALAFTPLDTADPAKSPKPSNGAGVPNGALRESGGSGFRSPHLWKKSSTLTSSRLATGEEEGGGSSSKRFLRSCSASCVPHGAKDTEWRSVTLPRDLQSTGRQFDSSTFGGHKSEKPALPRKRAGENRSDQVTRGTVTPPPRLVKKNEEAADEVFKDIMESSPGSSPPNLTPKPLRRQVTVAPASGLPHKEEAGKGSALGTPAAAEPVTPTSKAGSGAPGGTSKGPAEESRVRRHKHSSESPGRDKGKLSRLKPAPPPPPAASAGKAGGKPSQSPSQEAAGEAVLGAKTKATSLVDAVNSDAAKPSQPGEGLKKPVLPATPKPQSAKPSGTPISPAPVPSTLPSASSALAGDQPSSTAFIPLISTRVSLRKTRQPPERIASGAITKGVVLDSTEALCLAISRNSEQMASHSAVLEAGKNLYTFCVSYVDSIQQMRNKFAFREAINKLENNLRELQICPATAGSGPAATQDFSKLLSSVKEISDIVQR
T3 sequence (Q08345 19-913): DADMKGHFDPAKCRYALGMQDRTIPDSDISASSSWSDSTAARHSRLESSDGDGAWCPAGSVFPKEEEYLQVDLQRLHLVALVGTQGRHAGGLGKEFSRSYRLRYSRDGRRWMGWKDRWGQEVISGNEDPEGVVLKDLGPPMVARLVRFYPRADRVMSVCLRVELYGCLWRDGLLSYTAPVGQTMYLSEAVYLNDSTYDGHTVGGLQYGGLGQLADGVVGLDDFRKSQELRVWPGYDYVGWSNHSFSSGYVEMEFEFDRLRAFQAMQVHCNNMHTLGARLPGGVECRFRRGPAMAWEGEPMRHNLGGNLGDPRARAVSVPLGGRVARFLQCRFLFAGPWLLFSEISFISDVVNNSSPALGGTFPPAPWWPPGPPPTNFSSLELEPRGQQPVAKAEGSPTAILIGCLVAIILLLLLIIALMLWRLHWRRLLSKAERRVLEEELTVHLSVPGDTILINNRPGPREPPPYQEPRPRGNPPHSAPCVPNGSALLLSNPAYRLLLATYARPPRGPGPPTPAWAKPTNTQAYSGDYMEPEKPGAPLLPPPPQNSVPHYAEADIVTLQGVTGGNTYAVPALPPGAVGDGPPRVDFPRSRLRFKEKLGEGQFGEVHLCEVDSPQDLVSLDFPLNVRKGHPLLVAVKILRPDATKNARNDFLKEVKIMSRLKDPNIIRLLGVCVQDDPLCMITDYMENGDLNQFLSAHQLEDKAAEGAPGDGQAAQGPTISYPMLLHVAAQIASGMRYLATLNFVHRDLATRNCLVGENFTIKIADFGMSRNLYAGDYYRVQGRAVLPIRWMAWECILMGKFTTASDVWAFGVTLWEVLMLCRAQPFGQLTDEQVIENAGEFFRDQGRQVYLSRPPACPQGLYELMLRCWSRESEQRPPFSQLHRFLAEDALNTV

Cc1cccc(-c2cc3nccc(Nc4ccccc4)c3s2)c1 [BK40143]
inhibition at 10 µM (MEK5): 99.7% | remaining binding at 10 µM (MEK5): 0.35% | inhibition at 10 µM (ULK3): 90.2% | remaining binding at 10 µM (ULK3): 9.8% | inhibition at 10 µM (DDR1): 69% | remaining binding at 10 µM (DDR1): 31% | inhibition at 10 µM (SRC): 84.7% | remaining binding at 10 µM (SRC): 5.3% | inhibition at 10 µM (ABL1): 90% | remaining binding at 10 µM (ABL1): 10% | inhibition at 10 µM (CSF1R): 62% | remaining binding at 10 µM (CSF1R): 38%

Cc1cccc(-c2cc3nccc(N4CCOCC4)c3s2)c1 [BK40197]
inhibition at 10 µM (MEK5): 93.1% | remaining binding at 10 µM (MEK5): 6.9% | inhibition at 10 µM (ULK3): 93.9% | remaining binding at 10 µM (ULK3): 6.1% | inhibition at 10 µM (DDR1): 0% | remaining binding at 10 µM (DDR1): 100% | inhibition at 10 µM (SRC): 19% | remaining binding at 10 µM (SRC): 81% | inhibition at 10 µM (ABL1): 60% | remaining binding at 10 µM (ABL1): 40% | inhibition at 10 µM (CSF1R): 77% | remaining binding at 10 µM (CSF1R): 23%
